The source of these data is patent EP1984353B1, “AURORA KINASE MODULATORS AND METHOD OF USE” (Amgen, Inc, priority 2006, dated 2007).

The structures appear in SMILES notation. Like-named read-outs stand apart in the source and are kept apart here.

One assay deals with T1, AuroraA-TPX2 (Homo sapiens, UniProt O14965).
T1 construct: 20 µL of AuroraA-TPX2 KD GST; GST
T1 sequence (O14965 133-383 limits assumed): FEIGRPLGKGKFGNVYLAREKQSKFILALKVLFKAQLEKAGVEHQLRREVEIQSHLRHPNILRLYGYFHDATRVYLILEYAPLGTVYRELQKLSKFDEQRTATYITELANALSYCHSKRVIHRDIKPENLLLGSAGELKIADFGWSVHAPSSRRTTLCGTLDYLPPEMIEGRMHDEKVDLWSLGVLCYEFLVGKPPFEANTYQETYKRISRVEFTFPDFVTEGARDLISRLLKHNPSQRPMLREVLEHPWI
T1 sequence (Q9ULW0 1-43 partner limits assumed): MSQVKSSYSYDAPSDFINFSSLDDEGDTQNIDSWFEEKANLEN
As to the kind of experiment: AuroraA-TPX2 Homogeneous Time Resolved Fluorescent (HTRF) kinase assay. Type of assay: biochemical. Particulars: average, read-out: AurA/TP X2_ IC50_IP (Avg). Summed up: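 HTRF read-out: europium anti-phosphoPLK antibody (0.02 nM) plus streptavidin-APC detect phosphorylated biotin-PLK after EDTA stop and overnight equilibration. Kinase step runs about 120 min with Aurora-A/TPX2, ATP and roughly 1 µM PLK peptide at pH 7.5 HEPES buffer with Mg2+ and DTT.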
On the technique in general: In TR-FRET formats the signal depends on donor and acceptor labels being close together.

The next assay has as its target T2, AuroraB (Homo sapiens, UniProt Q96GD4).
T2 construct: 20 µL of AuroraB FL His; His
The experiment in a line: AuroraB Homogeneous Time Resolved Fluorescent (HTRF) kinase assay. Type of assay: biochemical. Particulars: average, read-out: AurB_ _IC50_IP (Avg). Summed up: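 HTRF read-out: after EDTA stop and ~60 min with europium anti-phospho-H3 antibody and streptavidin-APC, 655/615 nm ratio reports phosphorylation. Reaction: 400 pM AuroraB FL His, 23 µM ATP (at Km(app)), 0.1 µM biotin-Histone H3 peptide, 50 mM HEPES pH 7.5, MgCl/MnCl, ~90 min.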

Assay [1] has as its system phosphorylation of Histone H3. The experiment in a line: HeLa cell 1-hour phospho-histone assay. Type of assay: cell-based. To be noted: Homo sapiens, HeLa, 1 h, HeLa cells, 1 hour, average, read-out: pHH3 EC50_IP (Avg). Summed up:
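HeLa cells were exposed to serially diluted compounds for 1 hour at 37 °C (0.5% DMSO final), then fixed, permeabilized and immunostained for phospho-histone H3 (Ser10) with Hoechst counterstain. High-content imaging scored the percentage of pHH3-positive cells.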

[2] abbreviates: given as numbers, unit inferred.

T2 sequence (Q96GD4 whole entry): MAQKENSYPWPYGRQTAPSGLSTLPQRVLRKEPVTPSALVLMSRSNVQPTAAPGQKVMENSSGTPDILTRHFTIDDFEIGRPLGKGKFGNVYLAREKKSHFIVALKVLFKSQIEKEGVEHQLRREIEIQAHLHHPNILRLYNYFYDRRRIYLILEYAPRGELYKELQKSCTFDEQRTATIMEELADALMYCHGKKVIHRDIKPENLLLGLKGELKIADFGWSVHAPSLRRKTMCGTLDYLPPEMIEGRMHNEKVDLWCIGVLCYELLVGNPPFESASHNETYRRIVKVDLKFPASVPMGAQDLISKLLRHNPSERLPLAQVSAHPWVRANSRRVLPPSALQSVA

As to `Nc1nccc(-c2cccnc2Oc2ccc(Nc3nnc(-c4cccc(CCCO)c4)c4ccccc34)cc2)n1` [compound 344, 3-(3-(4-((4-((3-(2-amino-4-pyrimidinyl)-2-pyridinyl)oxy)phenyl)amino)-1-phthalazinyl)phenyl)-1-propanol], the IC50 on AuroraA-TPX2 (given as class symbols) and at AuroraB (given as class symbols) was no more than 100 nM in each case. In addition, the EC50 in assay [1] (given as class symbols) is no more than 100 nM.
Regarding `CCN(CC)CCCNc1nccc(-c2cccnc2Oc2ccc(Nc3nnc(-c4ccccc4)cc3C)cc2)n1` [compound 426, N,N-diethyl-N'-(4-(2-((4-((4-methyl-6-phenyl-3-pyridazinyl)amino)phenyl)oxy)-3-pyridinyl)-2-pyrimidinyl)-1,3-propanediamine], the IC50 on AuroraA-TPX2 (given as class symbols) and on AuroraB (given as class symbols) was no more than 100 nM each time. Moreover, the EC50 in assay [1] (given as class symbols) fell in the range of 100 to 500 nM.
`Nc1nccc(-c2cccnc2Oc2ccc(Nc3nnc(-c4ccc(CCO)cc4)c4ccccc34)cc2)n1` [compound 247, 2-(4-(4-((4-((3-(2-amino-4-pyrimidinyl)-2-pyridinyl)oxy)phenyl)amino)-1-phthalazinyl)phenyl)ethanol]: the IC50 on AuroraA-TPX2 (setting [2]) was 19.8 nM; on AuroraB (setting [2]), 4.2 nM. In assay [1] (setting [2]), the EC50 is 335 nM.
Consider `O=S(=O)(O)CCCNc1nccc(-c2cccnc2Oc2ccc(Nc3nnc(-c4ccccc4)c4ccccc34)cc2)n1` [compound 421, 3-((4-(2-((4-((4-phenyl-1-phthalazinyl)amino)phenyl)oxy)-3-pyridinyl)-2-pyrimidinyl)amino)-1-propanesulfonic acid], for which the IC50 at AuroraA-TPX2 (given as class symbols) and on AuroraB (given as class symbols) was 100 to 500 nM in each case. For the same molecule, in assay [1] (given as class symbols), the EC50 lay in the range of 500 to 2500 nM.
For the molecule `CCN(CCO)CCCNc1nccc(-c2cccnc2Oc2ccc(Nc3nnc(-c4ccccc4)c4ccccc34)cc2)n1` [compound 349, 2-(ethyl(3-((4-(2-((4-((4-phenyl-1-phthalazinyl)amino)phenyl)oxy)-3-pyridinyl)-2-pyrimidinyl)amino)propyl)amino)ethanol], the IC50 was 100 to 500 nM on AuroraA-TPX2 (given as class symbols) and no more than 100 nM on AuroraB (given as class symbols). The EC50 in assay [1] (given as class symbols) lay in the range of 100 to 500 nM.
For `Nc1nccc(-c2cccnc2Oc2ccc(Nc3nnc(C4CCCCC4)c4ccccc34)cn2)n1` [compound 274, N-(6-((3-(2-amino-4-pyrimidinyl)-2-pyridinyl)oxy)-3-pyridinyl)-4-cyclohexyl-1-phthalazinamine], the IC50 on AuroraA-TPX2 (given as class symbols) and on AuroraB (given as class symbols) was no more than 100 nM each time. Moreover, the EC50 in assay [1] (given as class symbols) was no more than 100 nM.
Take `c1ccc(-c2nnc(Nc3ccc(Oc4ncccc4-c4ccnc(NCCCN5CCNCC5)n4)cc3)c3ccccc23)cc1` [compound 340, 4-phenyl-N-(4-((3-(2-((3-(1-piperazinyl)propyl)amino)-4-pyrimidinyl)-2-pyridinyl)oxy)phenyl)-1-phthalazinamine]: the IC50 on AuroraA-TPX2 (given as class symbols) and on AuroraB (given as class symbols) was no more than 100 nM each time. Also, the EC50 in assay [1] (given as class symbols) is 100 to 500 nM.
On to `Cc1cc(-c2ccccc2)nnc1Nc1ccc(Oc2ncccc2-c2ccnc3c2CC(=O)N3)cc1` [compound 282, 4-(2-((4-((4-methyl-6-phenyl-3-pyridazinyl)amino)phenyl)oxy)-3-pyridinyl)-1,3-dihydro-2H-pyrrolo[2,3-b]pyridin-2-one], for which the IC50 on AuroraA-TPX2 (given as class symbols) and at AuroraB (given as class symbols) was no more than 100 nM throughout. Also, the EC50 in assay [1] (given as class symbols) was 100 to 500 nM.
Take `OCCCNc1nccc(-c2cccnc2Oc2ccc(Nc3nnc(-c4ccccc4)c4ccccc34)cc2)n1` [compound 339, 3-((4-(2-((4-((4-phenyl-1-phthalazinyl)amino)phenyl)oxy)-3-pyridinyl)-2-pyrimidinyl)amino)-1-propanol]: the IC50 at AuroraA-TPX2 (given as class symbols) and on AuroraB (given as class symbols) was no more than 100 nM in each case. In addition, in assay [1] (given as class symbols), the EC50 was 100 to 500 nM.
For `CN(C)Cc1cccc(-c2nnc(Nc3ccc(Oc4ncccc4-c4ccnc(N)n4)cc3)c3ccccc23)c1` [compound 299, N-(4-((3-(2-amino-4-pyrimidinyl)-2-pyridinyl)oxy)phenyl)-4-(3-((dimethylamino)methyl)phenyl)-1-phthalazinamine], the IC50 on AuroraA-TPX2 (given as class symbols) is 100 to 500 nM; on AuroraB (given as class symbols), no more than 100 nM. Also, in assay [1] (given as class symbols), the EC50 is 500 to 2500 nM.
For `CNc1nccc(-c2cccnc2Oc2ccc(Nc3nnc(-c4ccccc4)c4ccccc34)nc2)n1` [compound 248, N-(5-((3-(2-(methylamino)-4-pyrimidinyl)-2-pyridinyl)oxy)-2-pyridinyl)-4-phenyl-1-phthalazinamine], the IC50 on AuroraA-TPX2 (setting [2]) worked out at 149 nM; at AuroraB (setting [2]) it was 11 nM. Moreover, the EC50 in assay [1] (setting [2]) was determined as 465 nM.
Turning to `Nc1nccc(-c2cccnc2Oc2ccc(Nc3nnc(-c4ccccc4)cc3O)cc2)n1` [compound 263, 3-((4-((3-(2-amino-4-pyrimidinyl)-2-pyridinyl)oxy)phenyl)amino)-6-phenyl-4-pyridazinol], the IC50 on AuroraA-TPX2 (given as class symbols) and on AuroraB (given as class symbols) was 500 to 2500 nM each time. In assay [1] (given as class symbols), the EC50 is 500 to 2500 nM.
As for `Nc1n[nH]cc1-c1cccnc1Oc1ccc(Nc2nnc(-c3ccc(Cl)cc3)c3ccccc23)cc1` [compound 306, N-(4-((3-(3-amino-1H-pyrazol-4-yl)-2-pyridinyl)oxy)phenyl)-4-(4-chlorophenyl)-1-phthalazinamine], the IC50 on AuroraA-TPX2 (given as class symbols) and on AuroraB (given as class symbols) was no more than 100 nM in each case. The EC50 in assay [1] (given as class symbols) lay in the range of 100 to 500 nM.
